# Laboratory results: US20230015949A1, “NEISSERIA TREATMENT USING CANNABINOIDS” (priority 2019, published 2023)
# Read-outs that look alike come from different tables or passages of the source.
# Columns and labels:
# Neisseria gonorrhoeae = assay: Broth microdilution MIC assay, 30 isolates (Example 2); type: cell-based
# Method: In this study, the in vitro spectrum of activity of CBD was determined against 30 isolates comprised of reference strains from the WHO, isolates from the CDC antibiotic resistance bank, and clinical isolates from the Micromyx (MMX) repository, with different resistance phenotypes. Assays were conducted following guidelines recommended by the Clinical and Laboratory Standards Institute (CLSI; 1, 2) with the exception that broth microdilution was used instead of agar dilution.
# Stock solutions of all compounds were prepared on the day of testing using solvents recommended by CLSI. Stock solutions of all compounds were made at 101× the final testing concentration. CBD was supplied by Cerilliant (Round Rock, Tex.) as a 1 mg/mL methanolic solution which was stored at −20° C. after receipt. Prior to testing, using a 5 mL aliquot of the CBD methanolic solution, the methanol was dried off and the residual CBD was resuspended in 774 μL DMSO resulting in a 6.464 mg/mL solution.
# The test organisms evaluated in this study consisted of Neisseria gonorrhoeae isolates from the Micromyx repository and reference isolates from the American Type Culture Collection (ATCC; Manassas, Va.), Centers for Disease Control and Prevention (CDC; Atlanta, Ga.) or the National Collection of Type Cultures (NCTC; Public Health England, Salisbury, UK). Upon initial receipt at Micromyx, the organisms were sub-cultured onto an appropriate agar medium.
# (§1) Following incubation, colonies were harvested from these plates and cell suspensions prepared and frozen at −80° C. with a cryoprotectant. Prior to testing, N. gonorrhoeae isolates were streaked onto Chocolate Agar [Becton Dickinson, (BD), Sparks, Md.; Lot No. 922807]; Staphylococcus aureus ATCC 29213 tested for quality control (QC) purposes was streaked onto Trypticase Soy Agar with 5% Sheep Blood (TSA II; BD; Lot No. 9219399).
# For N. gonorrhoeae, a modified medium described by the ATCC as capable of supporting the growth of N. gonorrhoeae (Neisseria peptone medium) was used for the broth microdilution MIC assay. This medium contained 15 g Oxoid Special Peptone (Lot No. 1280296; Oxoid, Hampshire, UK), 1 g corn starch (Lot No. AD-13344-14; Ward's Science; Rochester, N.Y.), 5 g NaCl (Lot No. 57897; VWR, Radnor, Pa.), 4 g K2HPO4 (Lot No. SLBT7061; Sigma), and 1 g KH2PO4 (Lot No. SLBC1921V; Sigma). After autoclaving, the medium was centrifuged at 5,000×g for 10 min, the supernatant was passed through a 0.45 μm filter, and IsoVitaleX supplement (Lot No. 8323954; BD) was added at 1% (v/v).
# (§2) MIC values were determined using a broth microdilution procedure described by CLSI (1, 2). Automated liquid handlers (Multidrop 384, Labsystems, Helsinki, Finland; Biomek 2000 and Biomek FX, Beckman Coulter, Fullerton Calif.) were used to conduct serial dilutions and liquid transfers.
# (§3) To prepare the drug mother plates, which would provide the serial drug dilutions for the replicate daughter plates, the wells of columns 2 through 12 of standard 96-well microdilution plates (Costar 3795) were filled with 150 μl of the designated diluent for each row of drug. The test articles and comparator compounds (300 μl at 100× the highest concentration to be tested) were dispensed into the appropriate wells in column 1. The Biomek 2000 was then used to make 2-fold serial dilutions in the mother plates from column 1 through column 11. The wells of column 12 contained no drug and served as the organism growth control wells for the assay.
# (§4) The daughter plates were loaded with 190 μL per well of the appropriate test medium for the tested organism using the Multidrop 384. The daughter plates were completed on the Biomek FX instrument which transferred 2 μL of drug solution from each well of a mother plate to the corresponding well of each daughter plate in a single step. Daughter plates for the testing of anaerobes were allowed to pre-reduce in the Bactron II anaerobe chamber for 2 hr prior to inoculation.
# [1] = system: Staphylococcus aureus ATCC 29213; assay: Broth microdilution MIC assay, quality control strain (Example 2); type: cell-based; details: ATCC29213, S. aureus ATCC 29213 (QC), CAMHB
# Method: as §1
# Cation-adjusted Mueller Hinton broth (CAMHB; BD; Lot No. 9019592) was used for MIC testing of S. aureus ATCC 29213 for QC purposes.
# as §2, §3, §4
# A standardized inoculum of each test organism was prepared per CLSI methods (1, 2). The inoculum for each organism was dispensed into sterile reservoirs divided by length (Beckman Coulter), and the Biomek 2000 was used to inoculate the plates. Daughter plates were placed on the Biomek 2000 work surface in reverse orientation so that inoculation took place from low to high drug concentration. Anaerobic organisms were inoculated by hand in the Bactron II anaerobic chamber. Bacterial plates were then inoculated with 10 μL of the inoculum resulting in a final cell density of approximately 5×10^5 CFU/mL.
# Plates were stacked 3 to 4 high, covered with a lid on the top plate and placed in plastic bags. […] The MIC was read and recorded as the lowest concentration of drug that inhibited visible growth of the organism.
# [2] = system: Staphylococcus aureus ATCC 29213; details: S. aureus ATCC 29213, CLSI QC ranges shown in parentheses, cited from earlier work
# [3] = 30 isolates of N. gonorrhoeae, broth microdilution
# [4] = 30 isolates of N. gonorrhoeae, broth microdilution, MIC distribution
# [5] = 30 isolates, broth dilution assay, MIC distribution (Table 6)
compound,measurement,setting,value
"CO/N=C(\C(=O)N[C@@H]1C(=O)N2C(C(=O)O)=C(CSc3nc(=O)c(=O)[nH]n3C)CS[C@H]12)c1csc(N)n1 [CRO, ceftriaxone]",MIC50,Neisseria gonorrhoeae; [3],≤0.008 µg/mL
same,MIC Range,Neisseria gonorrhoeae; [3],≤0.008 − 1 μg/mL
same,Number of isolates at MIC value 0.015 μg/mL,Neisseria gonorrhoeae; [4],5
same,Number of isolates at MIC value 0.03 μg/mL,Neisseria gonorrhoeae; [4],2
same,Number of isolates at MIC value 0.06 μg/mL,Neisseria gonorrhoeae; [4],1
same,Number of isolates at MIC value 0.5 μg/mL,Neisseria gonorrhoeae; [4],1
same,Number of isolates at MIC value 1 μg/mL,Neisseria gonorrhoeae; [4],1
same,Number of isolates at MIC value 2 μg/mL,Neisseria gonorrhoeae; [4],0
same,Number of isolates at MIC value 4 μg/mL,Neisseria gonorrhoeae; [4],0
same,Number of isolates at MIC value 8 μg/mL,Neisseria gonorrhoeae; [4],0
same,Number of isolates at MIC value <0.008 μg/mL,Neisseria gonorrhoeae; [4],20
same,Number of isolates at MIC value >8 μg/mL,Neisseria gonorrhoeae; [4],0
same,Number of isolates at MIC value […],Neisseria gonorrhoeae; [4],0
same,MIC Range,"Neisseria gonorrhoeae; 30 isolates of N. gonorrhoeae, broth microdilution, listed as ceftriaxone",≤0.008 to 1 µg/mL
same,Number of isolates at MIC 0.08 μg mL^−1,Neisseria gonorrhoeae; [5],0
same,Number of isolates at MIC ≤0.004 μg mL^−1,Neisseria gonorrhoeae; [5],20
same,MIC,"Neisseria gonorrhoeae; N. gonorrhoeae ATCC 49226 (QC), broth microdilution",£0.008 μg/mL
same,MIC,"Neisseria gonorrhoeae; Neisseria gonorrhoeae, ATCC49226, N. gonorrhoeae ATCC 49226 (QC), broth microdilution, read-out: MIC",≤ 0.008 µg/mL
same,MIC,"Neisseria gonorrhoeae; Neisseria gonorrhoeae, N. gonorrhoeae CDC 0165 (CIP-R, AZI MIC 1), broth microdilution, read-out: MIC",0.015 µg/mL
same,MIC,"Neisseria gonorrhoeae; Neisseria gonorrhoeae, N. gonorrhoeae CDC 0166 (CIP-R, AZI MIC 1), broth microdilution, read-out: MIC",0.015 µg/mL
same,MIC,"Neisseria gonorrhoeae; Neisseria gonorrhoeae, N. gonorrhoeae CDC 0167 (CIP-S, AZI MIC 8), broth microdilution, read-out: MIC",≤ 0.008 µg/mL
same,MIC,"Neisseria gonorrhoeae; Neisseria gonorrhoeae, N. gonorrhoeae CDC 0172 (CIP-R, AZI MIC 0.5), broth microdilution, read-out: MIC",≤ 0.008 µg/mL
same,MIC,"Neisseria gonorrhoeae; Neisseria gonorrhoeae, N. gonorrhoeae CDC 0175 (CIP-S, AZI MIC 16), broth microdilution, read-out: MIC",≤ 0.008 µg/mL
same,MIC,"Neisseria gonorrhoeae; Neisseria gonorrhoeae, N. gonorrhoeae CDC 0177 (CIP-S, AZI MIC 2), broth microdilution, read-out: MIC",≤ 0.008 µg/mL
same,MIC,"Neisseria gonorrhoeae; Neisseria gonorrhoeae, N. gonorrhoeae CDC 0181 (CIP-S, AZI MIC 256), broth microdilution, read-out: MIC",≤ 0.008 µg/mL
same,MIC,"Neisseria gonorrhoeae; Neisseria gonorrhoeae, N. gonorrhoeae CDC 0194 (CRO-NS, CIP-S, AZI MIC 0.5), broth microdilution, read-out: MIC",0.03 µg/mL
same,MIC,"Neisseria gonorrhoeae; Neisseria gonorrhoeae, N. gonorrhoeae MMX 6921 (CIP-R), broth microdilution, read-out: MIC",≤ 0.008 µg/mL
same,MIC,"Neisseria gonorrhoeae; Neisseria gonorrhoeae, N. gonorrhoeae MMX 6938 (CIP-S), broth microdilution, read-out: MIC",≤ 0.008 µg/mL
same,MIC,"Neisseria gonorrhoeae; Neisseria gonorrhoeae, N. gonorrhoeae MMX 10409 (CIP-R), broth microdilution, read-out: MIC",0.015 µg/mL
same,MIC,"Neisseria gonorrhoeae; Neisseria gonorrhoeae, N. gonorrhoeae MMX 10410 (CIP-S), broth microdilution, read-out: MIC",≤ 0.008 µg/mL
same,MIC,"Neisseria gonorrhoeae; Neisseria gonorrhoeae, N. gonorrhoeae MMX 10447 (CIP-S), broth microdilution, read-out: MIC",≤ 0.008 µg/mL
same,MIC,"Neisseria gonorrhoeae; Neisseria gonorrhoeae, N. gonorrhoeae MMX 10450 (CIP-S), broth microdilution, read-out: MIC",≤ 0.008 µg/mL
same,MIC,"Neisseria gonorrhoeae; Neisseria gonorrhoeae, N. gonorrhoeae MMX 10452 (CIP-R), broth microdilution, read-out: MIC",≤ 0.008 µg/mL
same,MIC,"Neisseria gonorrhoeae; Neisseria gonorrhoeae, N. gonorrhoeae MMX 10454 (CIP-R), broth microdilution, read-out: MIC",0.015 µg/mL
same,MIC,"Neisseria gonorrhoeae; Neisseria gonorrhoeae, NCTC13477, N. gonorrhoeae NCTC 13477 (WHO F; CIP-S, AZI MIC […]), broth microdilution, read-out: MIC",≤ 0.008 µg/mL
same,MIC,"Neisseria gonorrhoeae; Neisseria gonorrhoeae, NCTC13478, N. gonorrhoeae NCTC 13478 (WHO G; CIP-I, AZI MIC […]), broth microdilution, read-out: MIC",≤ 0.008 µg/mL
same,MIC,"Neisseria gonorrhoeae; Neisseria gonorrhoeae, NCTC13479, N. gonorrhoeae NCTC 13479 (WHO K; CIP-R, AZI MIC […]), broth microdilution, read-out: MIC",0.03 µg/mL
same,MIC,"Neisseria gonorrhoeae; Neisseria gonorrhoeae, NCTC13480, N. gonorrhoeae NCTC 13480 (WHO L; CIP-R, AZI MIC 0.5), broth microdilution, read-out: MIC",0.06 µg/mL
same,MIC,"Neisseria gonorrhoeae; Neisseria gonorrhoeae, NCTC13481, N. gonorrhoeae NCTC 13481 (WHO M; CIP-R, AZI MIC […]), broth microdilution, read-out: MIC",≤ 0.008 µg/mL
same,MIC,"Neisseria gonorrhoeae; Neisseria gonorrhoeae, NCTC13482, N. gonorrhoeae NCTC 13482 (WHO N; CIP-R, AZI MIC […]), broth microdilution, read-out: MIC",≤ 0.008 µg/mL
same,MIC,"Neisseria gonorrhoeae; Neisseria gonorrhoeae, NCTC13483, N. gonorrhoeae NCTC 13483 (WHO O; CIP-S, AZI MIC […]), broth microdilution, read-out: MIC",≤ 0.008 µg/mL
same,MIC,"Neisseria gonorrhoeae; Neisseria gonorrhoeae, NCTC13484, N. gonorrhoeae NCTC 13484 (WHO P; CIP-S, AZI MIC 4), broth microdilution, read-out: MIC",≤ 0.008 µg/mL
same,MIC,"Neisseria gonorrhoeae; Neisseria gonorrhoeae, NCTC13817, N. gonorrhoeae NCTC 13817 (WHO U; CIP-S, AZI MIC 4), broth microdilution, read-out: MIC",≤ 0.008 µg/mL
same,MIC,"Neisseria gonorrhoeae; Neisseria gonorrhoeae, NCTC13818, N. gonorrhoeae NCTC 13818 (WHO V; CIP-R, AZI MIC >256), broth microdilution, read-out: MIC",≤ 0.008 µg/mL
same,MIC,"Neisseria gonorrhoeae; Neisseria gonorrhoeae, NCTC13819, N. gonorrhoeae NCTC 13819 (WHO W; CIP-R, AZI MIC 0.5), broth microdilution, read-out: MIC",0.015 µg/mL
same,MIC,"Neisseria gonorrhoeae; Neisseria gonorrhoeae, NCTC13820, N. gonorrhoeae NCTC 13820 (WHO X; CRO-NS, CIP-R, AZI MIC 0.5), broth microdilution, read-out: MIC",1 µg/mL
same,MIC,"Neisseria gonorrhoeae; Neisseria gonorrhoeae, NCTC13821, N. gonorrhoeae NCTC 13821 (WHO Y; CIP-R, AZI MIC 1), broth microdilution, read-out: MIC",0.5 µg/mL
same,MIC50,"Neisseria gonorrhoeae; Neisseria gonorrhoeae, 30 isolates of N. gonorrhoeae, broth microdilution, read-out: MIC50",≤ 0.008 µg/mL
same,MIC90,"Neisseria gonorrhoeae; Neisseria gonorrhoeae, 30 isolates of N. gonorrhoeae, broth microdilution, read-out: MIC90",0.03 µg/mL
same,MIC,"Neisseria gonorrhoeae; Neisseria gonorrhoeae, 30 isolates of N. gonorrhoeae, broth microdilution, read-out: MIC Mode",≤ 0.008 µg/mL
same,MIC,[1],2 µg/mL
same,CLSI QC range of MIC,[2],1 to 8 µg/mL
same,CLSI QC range of MIC,[2]; listed as Ceftriaxone,(1-8)^1 μg/mL
